The values that follow are results of earlier work, collected in patent publication US6384213B1, “Process for preparing a pure, pharmacopoeial grade amorphous form of cefuroxime axetil” (Ranbaxy Laboratories Limited, priority 1998, dated 2002).

The conditions of data set [1]: amorphous form essentially free from crystalline material, purity at least 95%, compared with crystalline form.
The conditions of data set [2]: amorphous form essentially free from crystalline material, purity at least 95%.

`CO/N=C(\C(=O)N[C@@H]1C(=O)N2C(C(=O)OC(C)OC(C)=O)=C(COC(N)=O)CS[C@H]12)c1ccco1` (some centres unmarked) [cefuroxime axetil in amorphous form, cefuroxime axetil]: in data set [1], the bioavailability result is given as “higher bioavailability than the crystalline form”. Besides, the chemical stability entry in data set [2] is “adequate chemical stability”.
